In brackets after ≈: the same amount, converted by molar mass. Like-named read-outs stand apart in the source and are kept apart here. Non-standard residues stand in square brackets, D forms with d. Residues, ends and D or L forms follow the SMILES beside them. Ahx = NCCCCCC(=O)O; βAla = NCCC(=O)O
How the values were obtained:
[1] = system: S. suis serotype 2 strain SC070731; type: cell-based, Streptococcus suis
Description: The broth microdilution method was employed to determine the MIC values, following a previous study and a recently published protocol with a few modifications. In brief, an overnight S. suis serotype 2 strain SC070731 culture was diluted 100-fold in fresh THB and grown to an OD600nm of 0.6. Subsequently, the bacterial suspension was further diluted 2000-fold in fresh Mueller–Hinton broth (MHB) to a final concentration of approximately 1 × 10^5 CFU/mL. Then, 180 µL of the bacterial solution was transferred into a 96-well plate. Immediately, 20 µL of a 10× peptides, PNAs, or CPP-PNA conjugates working solution was added. As a negative control, an equivalent volume of water was added instead. The plate was then incubated at 37 °C with 5% CO2 for 18 h, and the growth was periodically monitored by measuring the OD595nm every hour using a BioTek ELx800 plate reader. The MIC value was determined as the lowest concentration inhibiting visible growth in the wells (OD595nm < 0.1).

[2] = system: S. suis serotype 2 strain SC070731 cells; assay: Cellular uptake of FITC-labeled CPPs by flow cytometry; type: cell-based, Streptococcus suis; settings: 10 µM FITC-labeled CPP or FITC molecule, 1 h, 37 °C, PBS; flow cytometry, 50,000 events, 488 nm laser
Description: S. suis serotype 2 strain SC070731 was streaked onto THA plates and incubated at 37 °C with 5% CO2 for 12 h. A bacterial colony was picked and inoculated overnight in 2 mL of THB at 37 °C. The overnight culture was then diluted 100-fold in fresh THB and grown to an OD600nm of 0.6 (approximately 3 × 10^8 CFU/mL). The obtained culture was washed twice with PBS and resuspended in PBS. Further, 900 µL of the bacterial solution was transferred into a 2 mL tube. Immediately, 100 µL of a 10× FITC-labeled CPPs working solution was added to a final concentration of 10 µM. Controls were prepared using an equivalent volume of water or a 10× FITC molecule solution. The reaction tubes were incubated for one hour at 37 °C and 10 rpm rotation in the dark. […] The fluorescence emitted by the 640 nm laser was used to analyze the cell membrane stained with Alexa Fluor 633-WGA. In contrast, the fluorescence emitted by the 488 nm laser was used to analyze the distribution of FITC-labeled CPPs in bacterial cells. […]
As mentioned, the bacterial cells were treated with FITC-labeled CPPs and fixed with 4% paraformaldehyde. […] Bacterial cells in suspension were analyzed at a 200–300 events/s flow rate, and 50,000 events were recorded for analysis. […] The mean fluorescence intensity of FITC was analyzed using FlowJo^TM v10 software (BD Biosciences). […]

[3] = S. suis serotype 2 strain SC070731, broth microdilution in MHB, approx. 1 × 10^5 CFU/mL, 37 °C, 5% CO2, 18 h, lowest concentration inhibiting visible growth (OD595nm < 0.1)

Row | Molecule | MIC [1, 3] [µM] | also measured
1 | N=C(N)NCCC[C@H](NC(=O)CN)C(=O)N[C@@H](CCCCN)C(=O)N[C@@H](CCCCN)C(=O)N[C@@H](CCCNC(=N)N)C(=O)N[C@@H](CCCNC(=N)N)C(=O)N[C@@H](CCC(N)=O)C(=O)N[C@@H](CCCNC(=N)N)C(=O)N[C@@H](CCCNC(=N)N)C(=O)N[C@@H](CCCNC(=N)N)C(=O)N[C@@H](Cc1ccc(O)cc1)C(=O)N[C@@H](CCCCN)C(N)=O [HIV-1 TAT] | >128 | –
2 | O=C1OC2(c3ccc(O)cc3Oc3cc(O)ccc32)c2ccc(N=C=S)cc21 [FITC molecule] | – | cells clustered in quadrant 4 (FITC-positive), share of total cells [2]: 64.80%
3 | N=C(N)NCCC[C@H](NC(=O)CCCCCNC(=O)[C@H](CCCNC(=N)N)NC(=O)[C@H](CCCNC(=N)N)NC(=O)CCCCCNC(=O)[C@H](CCCNC(=N)N)NC(=O)[C@H](CCCNC(=N)N)NC(=O)CCCCCNC(=O)[C@H](CCCNC(=N)N)NC(=O)[C@H](CCCNC(=N)N)NC(=O)CCCCCNC(=O)[C@@H](N)CCCNC(=N)N)C(=O)NCCCCCC(=O)NCCC(N)=O [(RXR)4XB] (H-R[Ahx]RR[Ahx]RR[Ahx]RR[Ahx]R[Ahx][βAla]-NH2) | – | MIC ([1]; 18 h): 4 µM (≈ 7.61 µg/mL)
4 | Free PNA: gyrA-specific antisense peptide nucleic acid, ttgcattatatg, without carrier peptide (TTGCATTATATG; all peptide nucleic acid (PNA); Unconjugated PNA, no carrier peptide) | >32 | –
